Measured values from a melting point compilation (Tetko et al.; mined from patent text by program, amines drawn as free bases though some values may be those of a salt).

SMILES	melting point
O=C(O)[C@@H]1CC2(CN1C(=O)CP(=O)(O)CCCCc1ccccc1)SCCS2	106 to 107 °C
O=C(O)CCCCN1CCN(C2=Nc3ccccc3Oc3ccc(Cl)cc32)CC1	223 to 226 °C
CC(=C1SC(=O)NC1=O)c1ccc(SCCc2ccccc2)cc1	183 to 187 °C
COc1cc2c(cc1OC)CN(CCCCc1ccc(NC(=O)c3cccc4c(=O)c5cccc(C)c5[nH]c34)cc1)CC2	140 °C
CC(=O)N(C)c1c(C(=O)c2ccccc2)[nH]c2cc(Cl)ccc12	232 to 235 °C
CC1(C)CC(=O)c2c(C3CCC3)sc(-c3nccs3)c2C1	126 to 128 °C
Cc1cccc(CSc2nc3cnccc3[nH]2)c1	166 to 168 °C
CN1CCN(CCC#Cc2cc3c(Nc4ccc5[nH]ccc5c4)c(C#N)cnc3s2)CC1	195 to 197 °C
O=c1sc(CO)c(C(F)(F)F)n1CC=C(Cl)Cl	81 °C
COc1ccc(CCCCCCCSc2ccccc2)cc1	58 to 59 °C
CCCC(=O)NCc1nc(-c2ccc3c(c2)Nc2ccccc2S3)cs1	218 to 220 °C
Cc1cc(C=O)cc(C=O)c1OCCCC(c1ccc(F)cc1)c1ccc(F)cc1	97 °C
Nc1ncc2cc(-c3c(Cl)ccc(Cl)c3Cl)c(N)nc2n1	320 to 322 °C
CCn1c(=O)c(-c2c(Cl)cccc2Cl)cc2cnc(Nc3ccc(OC)c(OC)c3)nc21	221 to 223 °C
O=C(OCCN1CCOC1=O)c1ccccc1Nc1ccnc2cc(Cl)ccc12	122 to 124 °C
CCCCCCCNC(=O)Nc1ccccc1C(=O)NCCC(c1ccccc1)c1ccccc1	118 °C
CC1(c2cccnc2F)OC(=S)N(Nc2ccccc2)C1=O (centres undefined)	130 to 135 °C
Cn1nc(-c2cccc(C(F)(F)F)c2)c(Br)c1C(=O)O	182 to 184 °C
CON=C(C)c1cccc(NC(=O)NCC(=O)N(C)c2ccc(Cl)c(COc3cccc4ccc(C)nc34)c2Cl)c1	218 to 224 °C
COc1cc(Nc2c(C#N)cnc3ccc(/C=C/CCN4CCOCC4)cc23)cc(OC)c1OC	86 to 87 °C
Cn1ncc(/C=C/C(=O)Nc2ccc(Cc3nc4ccccc4o3)cc2)c1-c1ccc(F)cc1	195 to 196 °C

SMILES	melting point
CCOCCCOc1ccc(-c2ccc3c(c2)C=C(C(=O)OC)CCN3C(=O)OC(C)(C)C)cc1	125 to 128 °C
CC(=S)NC[C@H]1CN(c2ccc(N3CCC4(CC3)OCCO4)c(F)c2)C(=O)O1	141 to 143 °C
OCc1ccc(-c2cccc(-c3cn([C@H]4CN5CCC4CC5)nn3)c2)cc1	214 °C
C[C@H]1CNCC[C@@]12OC(=O)c1ccccc12 (racemic)	131 °C
CCN(CC)CCN(CC)C(=O)c1ccc(Nc2ccnc3c(C(F)(F)F)cccc23)cc1	151 to 152 °C
Cc1c(-c2cc(Nc3cc4n(n3)CCN(C)C4)c(=O)n(CO)n2)cccc1N1Cc2cc(C(C)(C)C)sc2C1=O	185 to 187 °C
CCCCCn1nc(-c2ccc(F)cc2)c(-c2ccc(S(C)(=O)=O)cc2)cc1=O	65 to 67 °C
CCCOCc1nc2nccnc2c(=O)[nH]1	158 to 160 °C
Cc1nc2cccc(OCC(C)(C)NC(=O)CC(C)C)c2c(N)c1C(=O)O	195 to 198 °C
CN(c1ccc(F)c2cc(-c3nccs3)[nH]c12)S(=O)(=O)c1cccs1	197 to 198 °C
Cn1c(=O)c(=O)n(Cc2ccc(Cl)cc2Cl)c2cc(C(=O)O)ccc21	320 to 322 °C
CC(=O)CCC(=O)c1ccc(Cl)cc1	165 to 167 °C
O=C1NC(Cc2ccc(OCc3ccccc3)cn2)C(=O)NC1Cc1ccc(OCc2ccccc2)cc1 (centres undefined)	200 to 202 °C
CC(C)(C)OC(=O)CN1CCC(CNC(=O)N2CCN(C3CCN(C(=O)OC(C)(C)C)CC3)CC2)CC1	131 to 133 °C
CC(C)(C)OC(=O)NC1CCN(CC(=O)O)C1=O (centres undefined)	62 to 64 °C
COC(=O)c1ccc(OC(=O)c2ccc(C(=O)Oc3ccc(C(=O)OC)cc3)cc2)cc1	243 to 245 °C
CCOC(=O)c1cn(-c2cc(NC(=O)OC(C)(C)C)c(F)cc2F)c2c(C)c(F)c(F)c([N+](=O)[O-])c2c1=O	188 to 189 °C
CC1(C)C(C=C(C#N)c2ccccc2)C1C(=O)O (centres undefined)	186 to 188 °C
COc1cc(-c2cnc(N[N+](=O)[O-])[nH]c2=O)ccn1	194 to 196 °C
CC(=O)CC(=O)N[C@H](CF)[C@H](O)c1ccc(S(C)(=O)=O)cc1	139 to 141 °C
Cc1ccc(S(=O)(=O)n2c(-c3cn(C)c4ccc(C=O)cc34)cc3cccnc32)cc1	188 to 189 °C

SMILES	melting point
CNC(=O)C1=CC(CF)(CF)Oc2ccc(Cl)cc21	175 to 176 °C
COc1cc2c(cc1OC)CC(NC(=O)C1CCCN1)CC2 (centres undefined)	108 to 109 °C
CN(C)CCC(=O)Nc1ccc2c(c1)C(=O)c1cc(NC(=O)CCN(C)C)ccc1C2=O	196 °C
N#CCc1nnc2n1-c1sc(Cl)cc1C(c1ccccc1Cl)=NC2	217 to 220 °C
CCCOc1ccc(OC)cc1-c1ncc(C(=O)OCC)c(=O)[nH]1	124 to 126 °C
CC1(C)CCC(C)(C)c2cc(NC(=O)c3ccc(CO)cc3)ccc21	161 to 162 °C
O=C(O)C1(CCc2ccc(Cl)cc2)CCN(CC2CC2)CC1	250 °C
Cc1ccccc1C1C(=O)CC2CCCCC2C1=O (centres undefined)	165 to 167 °C
CCOC(=O)NC1CCN(Cc2ccccc2)CC1	100 °C
CCOC(=O)c1cnc2ccc(Cl)cc2c1-c1ccccc1	123 to 124 °C
CC(C)Oc1cc(CCCOc2nn(C)cc2CC(=O)O)n(Cc2ccc(Cl)cc2Cl)n1	96 to 97 °C
COc1cc(OCC(CO)CO)c(C=O)cc1-c1cccs1	144 to 145 °C
CNc1nc(-c2cccc(-c3cncc(S(C)=O)c3)c2)c2cc(OC)c(OC)cc2n1 (centres undefined)	208 to 210 °C
N#Cc1cc(-c2ccoc2)c2ccc(COc3cc(F)cc(-c4ccoc4)c3)cc2n1	156 to 159 °C
Cc1cc(C=O)c2cccc(OCc3ccccc3)c2n1	129 °C
CCCC(=O)c1cnc2c(OCCN(C)C)cccc2c1Nc1ccccc1C	88 to 90 °C
CCC(=O)N1CCCSC1=C[N+](=O)[O-]	84 to 86 °C
OCC1OC(n2c(Cl)nc3cc(Cl)c(Cl)cc32)C(O)C1F (centres undefined)	238 °C
N#CC(=C1CCN(Cc2ccccc2)CC1)c1ccc(F)cc1	81 to 83 °C
CN(C)c1ccc(I)nn1	135 °C
CN(C)C1CCN(c2nc(N3CCOCC3)c3ncnc(N(CC(=O)O)Cc4ccccc4)c3n2)CC1	151 to 155 °C

Continued, values first:

melting point	SMILES
207 to 209 °C	Cc1ccc(C(=O)Nc2c[nH]nc2C(=O)NCCC#N)cc1
57 °C	O=C(COC1CCCCO1)c1ccc(Cl)cc1 (centres undefined)
125 to 126 °C	O=C(CCCC(c1cc(F)ccc1F)S(=O)(=O)c1ccc(Cl)cc1)N1CCCC1 (centres undefined)
132 to 134 °C	CCOc1cc(C(CC(C)O)N2C(=O)c3cccc(NC(C)=O)c3C2=O)ccc1OC (centres undefined)
102 to 103 °C	CS(=O)c1nc(-c2ccccc2)c(-c2ccccc2)s1 (centres undefined)
63 °C	CN(C)Cc1ccc(CSCCNC(=C[N+](=O)[O-])NCCCN(C)CCN(Cc2ccc(F)cc2)c2ccccn2)o1
123 to 127 °C	Cc1ccc(-c2ccc3c(c2)C=C(C(=O)N2CCC(N)CC2)CCO3)cc1
156 to 159 °C	OCc1cc(I)cc(I)c1I
162 to 165 °C	N#Cc1cc(N)ccc1CN1CCC(N2CCOCC2)CC1
150 to 151 °C	CN1CCC(=C2c3ccc(Cl)cc3CC(=O)c3sccc32)CC1
137 to 139 °C	CCOC(=O)N1CCN(C2=Nc3ccccc3Cc3nccn32)CC1
111 to 119 °C	CCN(C(=O)C1CC1)c1cn(-c2cccnc2)nc1Cl
269 to 272 °C	O=S1(=O)c2ccccc2Nc2ccc(-c3ccccc3)cc21
107 to 108 °C	O=Cc1ccc2cc(OCc3ccccc3)ccc2c1
107 to 114 °C	C#CCn1c(=O)n(CC=C)c(=O)n(-c2cc(N3C(=O)C4=C(CCCC4)C3=O)c(F)cc2Cl)c1=O
236 to 237 °C	CC(C)n1nc(-c2sc(N)nc2-c2cccc(Cl)c2)ccc1=O
153 to 154 °C	CCCOC1(C(F)(F)F)CN(C2CC2)C(=O)Nc2ccc(Cl)cc21 (centres undefined)
118 to 120 °C	CC(C)c1c(C=C(Br)Br)c(-c2ccc(F)cc2)n2ccccc12

melting point	SMILES
268 to 270 °C	N#Cc1ccc(/C=C/S(=O)(=O)CS(=O)(=O)/C=C/c2ccc(C#N)cc2F)c(F)c1
> 250 °C	COc1cc2c(cc1OC)C(=O)c1cc3ccccc3cc1C2=O
72 to 73 °C	O=C(OCc1ccccc1)c1cc(I)ccc1OCc1ccccc1
268 to 270 °C	COCC1COc2cc3ncnc(Nc4cc(C)cc(C)c4)c3cc2O1 (centres undefined)
199 to 201 °C	O=c1[nH]nc(CO)c2ccccc12
110 to 111 °C	CCCCCCCCCCCCCCCCCCN(CCCCCCCCCCCCCCCCCC)c1ccccc1
162 to 163 °C	S=C(Cc1ccncc1)N1CCOCC1
133 to 134 °C	CCOC(=O)c1c(C)nc2sc3c(c2c1OS(=O)(=O)C(F)(F)F)CCC1(C3)OCCO1
245 °C	Cc1ncc(CNC(=O)c2nc3n(c(=O)c2O)CCOC3(C)C)s1
128 to 130 °C	CCC(C)(C)OC(=O)NC(C)(Cc1c[nH]c2ccccc12)C(=O)NCCc1ccc(OC)cc1 (centres undefined)
144 to 146 °C	Fc1ccc(C(C(Br)c2ccccc2)C(F)(F)F)cc1 (centres undefined)
155 to 156 °C	COc1cccc(C(=O)N2CCc3cc(S(=O)(=O)N4CCN(c5cccc(Cl)c5)CC4)ccc32)c1
64 to 66 °C	CC(C)(C)C(=O)Oc1ccc(C(=O)CBr)cc1OC(=O)C(C)(C)C
272 to 274 °C	O=C(O)c1cccc(-c2cc([N+](=O)[O-])ccc2F)c1
144 °C	COc1cc2c(cc1OC)C(=C(C#N)SCC(CN1CCOCC1)OC(=O)c1ccccc1)NCC2 (centres undefined)
138 to 141 °C	COc1ccccc1N1CCN([C@@H]2Cc3c(cccc3OC)C[C@H]2O)CC1 (relative stereo)
110 to 112 °C	COc1ccc(C(=O)NCCN2CCC(Oc3ccc(Cl)c(Cl)c3)CC2)cc1
163 °C	N#CC1=C(Nc2ccccc2N)CSC1
